Assay results: paper PMC3503517 (Chembiochem : a European journal of chemical biology, 2011)
Where two headings read alike, the source gives them in different places.

Columns and labels:
[1] = test system: HeLa cells; experiment: BrdC/BrdCTP incorporation into DNA detected with anti-BrdU antibody; assay type: cell-based, human; conditions: one-hour treatment
[2] = test system: HeLa cells; experiment: Cytotoxicity; assay type: cell-based; conditions: Homo sapiens, 48 h, read-out: IC50 (cell number)
[3] = molecular target: T1, human DCTPP1 (Homo sapiens, UniProt Q9H773); conditions: ITC, 25°C, value ± SD
T1 sequence (Q9H773 1-170): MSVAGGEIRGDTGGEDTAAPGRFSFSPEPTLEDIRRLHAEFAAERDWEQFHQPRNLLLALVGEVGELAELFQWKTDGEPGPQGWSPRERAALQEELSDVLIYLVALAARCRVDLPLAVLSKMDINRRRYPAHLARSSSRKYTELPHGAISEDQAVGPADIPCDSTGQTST

[4] = molecular target: T1, human DCTPP1; assay type: biochemical
[5] = molecular target: the molecule itself; experiment: native gel or EMSA + SEC

In the case of Nc1nc(=O)n([C@H]2C[C@H](O)[C@@H](CO)O2)cc1Br [BrdC], the “BrdU incorporation (fraction of anti-BrdU reactive cells)” value [1] is reported as 30–43 % of cells.

With CC(C)[C@]12O[C@H]1[C@@H]1O[C@]13[C@]1(O[C@H]1C[C@H]1C4=C(CC[C@@]13C)C(=O)OC4)[C@@H]2O [compound 1, triptolide] the IC50 [2] was 7 to 10 nM, the ΔH [3] was -19.98 ± 1.70 kcal/mol and the ΔH ([3]; listed as triptolide) was “–19.98 ± 1.70 kcal/mol”. For the same molecule, the “n (binding stoichiometry)” value ([3]; per DCTPP1 monomer) was 0.601 ± 0.075.

Nc1ccn([C@@H]2O[C@H](COP(=O)(O)OP(=O)(O)OP(=O)(O)O)[C@@H](O)C2(F)F)c(=O)n1 [gemcitabine triphosphate] was tested, and the “activity as a DCTPP1 substrate” value ([4]; kinetic assays, data not shown) was “did not show activity as a DCTPP1 substrate”.

Molecule Nc1nc(=O)n([C@H]2C[C@H](O)[C@@H](COP(=O)(O)OP(=O)(O)OP(=O)(O)O)O2)cc1I [5-I-dCTP] has a Km ([4]; as substrate of DCTPP1) of 239 µM and a kcat ([4]; as substrate of DCTPP1) of 0.000864 s⁻¹.

Nc1nc(=O)n([C@H]2C[C@H](O)[C@@H](COP(=O)(O)OP(=O)(O)OP(=O)(O)O)O2)cc1Br [BrdCTP] was tested, and the “BrdU incorporation (fraction of anti-BrdU reactive cells)” value [1] was 30–43 % of cells.

B1: recombinant human dCTP pyrophosphatase 1 (DCTPP1), GST tag cleaved off (enzyme, UniProt Q9H773 1-170, looked up)
chain: MSVAGGEIRGDTGGEDTAAPGRFSFSPEPTLEDIRRLHAEFAAERDWEQFHQPRNLLLALVGEVGELAELFQWKTDGEPGPQGWSPRERAALQEELSDVLIYLVALAARCRVDLPLAVLSKMDINRRRYPAHLARSSSRKYTELPHGAISEDQAVGPADIPCDSTGQTST
For B1, the “stoichiometry N” value [5] was 2.
